Assay results: patent publication US20240246964A1 (Arbutus Biopharma Corporation, priority 2021, published 2024)
pEC50, pIC50: −log10 of the molar value.

Legend:
[1] = biological target: PD-L1 His protein / PD-1 Fc protein (Homo sapiens (Human), UniProt Q9NZQ7); assay: HTRF Assay (PD-1/PD-L1 interaction); type: binding; details: PD-L1 His 6 nM, PD-1 Fc 6 nM
[2] = biological target: human PD-L1 (Homo sapiens (Human), UniProt Q9NZQ7); assay: T cell activation luciferase reporter cell culture system (T Cell Activation Assay); type: cell-based; details: luciferase reporter assay; PD-L1 aAPC/CHO-K1 cells with PD-1 effector Jurkat T cells
Sequence of human PD-L1 (Q9NZQ7 19-290): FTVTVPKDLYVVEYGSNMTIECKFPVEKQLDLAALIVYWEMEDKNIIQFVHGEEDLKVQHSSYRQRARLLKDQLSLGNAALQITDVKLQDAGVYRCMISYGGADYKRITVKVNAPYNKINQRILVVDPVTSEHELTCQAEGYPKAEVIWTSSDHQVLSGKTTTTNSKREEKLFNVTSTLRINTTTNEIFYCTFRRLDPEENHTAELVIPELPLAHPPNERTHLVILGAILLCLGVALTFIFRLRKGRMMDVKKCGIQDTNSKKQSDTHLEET

Sequence of PD-L1 His protein / PD-1 Fc protein (Q9NZQ7 19-238): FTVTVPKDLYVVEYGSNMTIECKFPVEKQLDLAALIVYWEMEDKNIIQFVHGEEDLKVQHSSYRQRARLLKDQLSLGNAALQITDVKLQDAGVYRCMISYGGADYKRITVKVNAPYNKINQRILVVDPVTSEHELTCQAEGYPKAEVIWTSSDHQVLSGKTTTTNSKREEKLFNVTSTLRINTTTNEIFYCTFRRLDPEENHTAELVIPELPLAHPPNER

SMILES | pIC50 [1] | pEC50 [2]
COc1cc(-c2nccc(-c3cccc(-c4cn5cc(CNC[C@@H]6CCC(=O)N6)nc5cn4)c3Cl)c2Cl)ccc1CNC[C@@H]1CCC(=O)N1 [Example 291, (S)-5-((((6-(2-Chloro-3-(3-chloro-2-(3-methoxy-4-(((((S)-5-oxopyrrolidin-2-yl)methyl)amino)methyl)phenyl)pyridin-4-yl)phenyl)imidazo[1,2-a]pyrazin-2-yl)methyl)amino)methyl)pyrrolidin-2-one] | 8.85 | 6.43
COc1cc(-c2nccc(-c3cccc4c3CC[C@@H]4Oc3nc(OC)c(CN4CC5(CNC(=O)C5)C4)cc3C(F)(F)F)c2Cl)ccc1CN1CC2(CNC(=O)C2)C1 [Example 292, (S)-2-(4-(3-chloro-4-(1-((6-methoxy-5-((7-oxo-2,6-diazaspiro[3.4]octan-2-yl)methyl)-3-(trifluoromethyl)pyridin-2-yl)oxy)-2,3-dihydro-1H-inden-4-yl)pyridin-2-yl)-2-methoxybenzyl)-2,6-diazaspiro[3.4]octan-7-one] | 8.36 | 6.41
COc1cc(-c2nccc(-c3cccc(-c4ccc(CNC[C@H](C)O)c(OC)n4)c3Cl)c2Cl)cc2c1CN(CCC(=O)O)CC2 [Example 293, (S)-3-(6-(3-Chloro-4-(2-chloro-3-(5-(((2-hydroxypropyl)amino)methyl)-6-methoxypyridin-2-yl)phenyl)pyridin-2-yl)-8-methoxy-3,4-dihydroisoquinolin-2(1H)-yl)propanoic acid] | 9.57 | 7.22
COc1cc(-c2nccc(-c3cccc(-c4ccc(CN5CC6(CNC(=O)C6)C5)c(OC)n4)c3Cl)c2Cl)cc2c1CN(CCC(=O)O)CC2 [Example 294, 3-(6-(3-Chloro-4-(2-chloro-3-(6-methoxy-5-((7-oxo-2,6-diazaspiro[3.4]octan-2-yl)methyl)pyridin-2-yl)phenyl)pyridin-2-yl)-8-methoxy-3,4-dihydroisoquinolin-2(1H)-yl)propanoic acid] | 9.62 | 7.13
COC(=O)C1(CN2CCc3cc(-c4nccc(-c5cccc(-c6ccc(CN7CC8(CNC(=O)C8)C7)c(OC)n6)c5Cl)c4Cl)cc(OC)c3C2)CC1 [Example 295, Methyl 1-((6-(3-chloro-4-(2-chloro-3-(6-methoxy-5-((7-oxo-2,6-diazaspiro [3.4]octan-2-yl)methyl)pyridin-2-yl)phenyl)pyridin-2-yl)-8-methoxy-3,4-dihydroisoquinolin-2(1H)-yl)methyl)cyclopropane-1-carboxylate] | 8.68 | 6.63
COc1cc(-c2nccc(-c3cccc(-c4ccc(CN5CC6(CNC(=O)C6)C5)c(OC)n4)c3Cl)c2Cl)cc2c1CN(CC(O)CF)CC2 (stereo not drawn) [Example 296, 2-((6-(2-Chloro-3-(3-chloro-2-(2-(3-fluoro-2-hydroxypropyl)-8-methoxy-1,2,3,4-tetrahydroisoquinolin-6-yl)pyridin-4-yl)phenyl)-2-methoxypyridin-3-yl)methyl)-2,6-diazaspiro[3.4]octan-7-one] | 8.48 | 7.30
COc1cc(-c2nccc(-c3cccc(-c4ccc(CN5CC6(CNC(=O)C6)C5)c(OC)n4)c3Cl)c2Cl)cc2c1CN(CC1(C(=O)O)CC1)CC2 [Example 297, 1-((6-(3-Chloro-4-(2-chloro-3-(6-methoxy-5-((7-oxo-2,6-diazaspiro[3.4]octan-2-yl)methyl)pyridin-2-yl)phenyl)pyridin-2-yl)-8-methoxy-3,4-dihydroisoquinolin-2(1H)-yl)methyl)cyclopropane-1-carboxylic acid] | 9.54 | 6.37
COc1cc(-c2nccc(-c3cccc(-c4ccc(CNC5CCOCC5)c(OC)n4)c3Cl)c2Cl)ccc1CNC1CCOCC1 [Example 298, N-((6-(2-chloro-3-(3-chloro-2-(3-methoxy-4-(((tetrahydro-2H-pyran-4-yl)amino)methyl)phenyl)pyridin-4-yl)phenyl)-2-methoxypyridin-3-yl)methyl)tetrahydro-2H-pyran-4-amine] | 8.75 | 7.84
COc1cc(-c2nccc(-c3cccc(-c4ccc(CNC5CCS(=O)(=O)CC5)c(OC)n4)c3Cl)c2Cl)ccc1CNC1CCS(=O)(=O)CC1 [Example 299, 4-(((6-(2-Chloro-3-(3-chloro-2-(4-(((1,1-dioxidotetrahydro-2H-thiopyran-4-yl)amino)methyl)-3-methoxyphenyl)pyridin-4-yl)phenyl)-2-methoxypyridin-3-yl)methyl)amino)tetrahydro-2H-thiopyran 1,1-dioxide] | 9.10 | 7.64
COc1cc(-c2nccc(-c3cccc(-c4ccc(CNC5CN(C(C)=O)C5)c(OC)n4)c3Cl)c2Cl)ccc1CNC1CN(C(C)=O)C1 [Example 300, 1-(3-(((6-(3-(2-(4-(((1-Acetylazetidin-3-yl)amino)methyl)-3-methoxyphenyl)-3-chloropyridin-4-yl)-2-chlorophenyl)-2-methoxypyridin-3-yl)methyl)amino)azetidin-1-yl)ethan-1-one] | 9.06 | 6.55
COc1cc(-c2nccc(-c3cccc(-c4ccc(CNC[C@H](C)O)c(OC)n4)c3Cl)c2Cl)ccc1CNC[C@H](C)O [Example 301, (S)-1-(((6-(2-Chloro-3-(3-chloro-2-(4-((((S)-2-hydroxypropyl)amino)methyl)-3-methoxyphenyl)pyridin-4-yl)phenyl)-2-methoxypyridin-3-yl)methyl)amino)propan-2-ol] | 9.24 | 7.71
COc1cc(-c2nccc(-c3cccc(-c4ccc(CNC5CC6(CCNC6=O)C5)c(OC)n4)c3Cl)c2Cl)ccc1CNC1CC2(CCNC2=O)C1 (stereo not drawn) [Example 302, 2-((4-(3-Chloro-4-(2-chloro-3-(6-methoxy-5-(((5-oxo-6-azaspiro[3.4]octan-2-yl)amino)methyl)pyridin-2-yl)phenyl)pyridin-2-yl)-2-methoxybenzyl)amino)-6-azaspiro[3.4]octan-5-one] | 8.95 | 7.63
COc1cc(-c2nccc(-c3cccc(-c4ccc(CNCCN5CCCC5=O)c(OC)n4)c3Cl)c2Cl)ccc1CNCCN1CCCC1=O [Example 303, 1-(2-(((6-(2-Chloro-3-(3-chloro-2-(3-methoxy-4-(((2-(2-oxopyrrolidin-1-yl)ethyl)amino)methyl)phenyl)pyridin-4-yl)phenyl)-2-methoxypyridin-3-yl)methyl)amino)ethyl)pyrrolidin-2-one] | 8.55 | 7.51
COc1nc(-c2ccnc(-c3cccc4c3CC[C@@H]4Nc3nc(OC)c(CN4CC5(CNC(=O)C5)C4)nc3C(F)(F)F)c2Cl)ccc1CN1CC2(CNC(=O)C2)C1 [Example 304, (S)-2-((3′-chloro-6-methoxy-2′-(1-((6-methoxy-5-((7-oxo-2,6-diazaspiro[3.4]octan-2-yl)methyl)-3-(trifluoromethyl)pyrazin-2-yl)amino)-2,3-dihydro-1H-inden-4-yl)-[2,4′-bipyridin]-5-yl)methyl)-2,6-diazaspiro[3.4]octan-7-one] | 8.19 | 6.71
COc1nc(-c2ccnc(-c3cccc4c3CC[C@@H]4Nc3nc(OC)c(CN4CC5(C4)CN(C(C)=O)C5)nc3C(F)(F)F)c2Cl)ccc1CN1CC2(C1)CN(C(C)=O)C2 [Example 305, (S)-1-(6-((5-((4-(5-((6-Acetyl-2,6-diazaspiro[3.3]heptan-2-yl)methyl)-3′-chloro-6-methoxy-[2,4′-bipyridin]-2′-yl)-2,3-dihydro-1H-inden-1-yl)amino)-3-methoxy-6-(trifluoromethyl)pyrazin-2-yl)methyl)-2,6-diazaspiro[3.3]heptan-2-yl)ethan-1-one] | 8.30 | ≤ 5.00
